Patent US5648458A, “Peptides and compounds that bind to ELAM-1” (Affymax Technologies N.V., priority 1995, dated 1997)
Ends that are not written are not given here.

Target: T1, immobilized ELAM-1 (Homo sapiens, UniProt P16581)
T1 construct: truncated form comprising the complete extracellular domain (amino acids 1 through 554); made in house
T1 sequence (P16581 22-554): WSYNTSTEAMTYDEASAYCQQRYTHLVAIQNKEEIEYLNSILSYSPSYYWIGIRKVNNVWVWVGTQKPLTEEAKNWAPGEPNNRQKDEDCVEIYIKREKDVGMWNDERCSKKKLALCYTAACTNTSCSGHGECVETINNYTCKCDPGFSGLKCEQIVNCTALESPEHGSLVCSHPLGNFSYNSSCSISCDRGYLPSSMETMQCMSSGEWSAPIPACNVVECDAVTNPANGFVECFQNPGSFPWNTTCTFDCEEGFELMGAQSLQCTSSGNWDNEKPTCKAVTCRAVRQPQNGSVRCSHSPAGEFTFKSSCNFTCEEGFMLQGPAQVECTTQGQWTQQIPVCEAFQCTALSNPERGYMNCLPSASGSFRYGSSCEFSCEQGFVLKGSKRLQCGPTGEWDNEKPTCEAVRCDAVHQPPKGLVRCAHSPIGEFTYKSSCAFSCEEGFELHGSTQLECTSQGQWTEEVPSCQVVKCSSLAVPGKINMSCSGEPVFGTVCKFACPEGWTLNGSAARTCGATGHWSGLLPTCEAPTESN
Format: cell-based
Conditions: 200000.0
Method: The assay requires HL60 cells labeled with tritiated thymidine. […] The cells are then placed in a T75 flask and incubated at 37° C. for 24 hours. The cells are then collected by centrifugation, washed twice with RPMI/HEPES/0.1% FCS, and resuspended in the same solution at a concentration of about one to two million cells per mL. About 100 μL of this cell preparation are used per well of a 96-well microtiter dish in the assay. The wells of the microtiter dish were first coated with the anti-receptor immobilizing antibody, an anti-HPAP-tail antibody, using about 2.5 μg of antibody per well. […] Then, the wells were washed three times with RPMI 1640 plus 0.1% FCS using a multichannel pipettor.

HITWDQLWNVMN
blocking of HL60 cell binding, relative to binding in the absence of added compound: over 80%
